From the supplement of paper PMC10307832

How the values were obtained:
Test in all cases: relative viability (nuclei count vs DMSO), 5 days (fraction); higher = more cells survive
Bexarotene + Phenformin = compound: C=C(c1ccc(C(=O)O)cc1)c1cc2c(cc1C)C(C)(C)CCC2(C)C [Bexarotene] + N=C(N)NC(=N)NCCc1ccccc1 [Phenformin] (partner 250 µM)
How it was run: (§1)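 Nuclei were stained with Hoechst during a one-step fixation (final 0.05% Triton X-100, 1% formaldehyde, 1 ug/ml Hoechst) carried out 5 days after dosing, then counted on 4× images. The cells, lung cancer lines in 1536-well plates, had been dosed by pin tool the day after seeding with one drug alone or a fixed anchor-drug dose plus five library-drug doses (not always all listed) in √10 steps. Relative viability is the nuclei count in treated wells divided by that in vehicle wells, and each value is the median of duplicate plates.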

Bexarotene + Pemetrexed = compound: C=C(c1ccc(C(=O)O)cc1)c1cc2c(cc1C)C(C)(C)CCC2(C)C [Bexarotene] + Nc1nc2[nH]cc(CCc3ccc(C(=O)N[C@@H](CCC(=O)O)C(=O)O)cc3)c2c(=O)[nH]1 [Pemetrexed] (partner 0.2 µM)
How it was run: as §1

Bexarotene + Dasatinib = compound: C=C(c1ccc(C(=O)O)cc1)c1cc2c(cc1C)C(C)(C)CCC2(C)C [Bexarotene] + Cc1nc(Nc2ncc(C(=O)Nc3c(C)cccc3Cl)s2)cc(N2CCN(CCO)CC2)n1 [Dasatinib] (partner 0.075 µM)
How it was run: as §1

Bexarotene + Tozasertib = compound: C=C(c1ccc(C(=O)O)cc1)c1cc2c(cc1C)C(C)(C)CCC2(C)C [Bexarotene] + Cc1cc(Nc2cc(N3CCN(C)CC3)nc(Sc3ccc(NC(=O)C4CC4)cc3)n2)n[nH]1 [Tozasertib] (partner 0.1 µM)
How it was run: as §1

Bexarotene + Vorinostat = compound: C=C(c1ccc(C(=O)O)cc1)c1cc2c(cc1C)C(C)(C)CCC2(C)C [Bexarotene] + O=C(CCCCCCC(=O)Nc1ccccc1)NO [Vorinostat] (partner 1 µM)
How it was run: as §1

Bexarotene + Olaparib = compound: C=C(c1ccc(C(=O)O)cc1)c1cc2c(cc1C)C(C)(C)CCC2(C)C [Bexarotene] + O=C(c1cc(Cc2n[nH]c(=O)c3ccccc23)ccc1F)N1CCN(C(=O)C2CC2)CC1 [Olaparib] (partner 8 µM)
How it was run: as §1

Bexarotene + Palbociclib = compound: C=C(c1ccc(C(=O)O)cc1)c1cc2c(cc1C)C(C)(C)CCC2(C)C [Bexarotene] + CC(=O)c1c(C)c2cnc(Nc3ccc(N4CCNCC4)cn3)nc2n(C2CCCC2)c1=O [Palbociclib] (partner 0.5 µM)
How it was run: as §1

Bexarotene + OSI-027 = compound: C=C(c1ccc(C(=O)O)cc1)c1cc2c(cc1C)C(C)(C)CCC2(C)C [Bexarotene] + COc1cccc2cc(-c3nc([C@H]4CC[C@H](C(=O)O)CC4)n4ncnc(N)c34)[nH]c12 [OSI-027] (partner 0.5 µM)
How it was run: as §1

Bexarotene + Luminespib = compound: C=C(c1ccc(C(=O)O)cc1)c1cc2c(cc1C)C(C)(C)CCC2(C)C [Bexarotene] + CCNC(=O)c1noc(-c2cc(C(C)C)c(O)cc2O)c1-c1ccc(CN2CCOCC2)cc1 [Luminespib] (partner 0.01 µM)
How it was run: as §1

Bexarotene + AZD7762 = compound: C=C(c1ccc(C(=O)O)cc1)c1cc2c(cc1C)C(C)(C)CCC2(C)C [Bexarotene] + NC(=O)Nc1cc(-c2cccc(F)c2)sc1C(=O)N[C@H]1CCCNC1 [AZD7762] (partner 0.2 µM)
How it was run: as §1

Bexarotene + Trametinib = compound: C=C(c1ccc(C(=O)O)cc1)c1cc2c(cc1C)C(C)(C)CCC2(C)C [Bexarotene] + CC(=O)Nc1cccc(-n2c(=O)n(C3CC3)c(=O)c3c(Nc4ccc(I)cc4F)n(C)c(=O)c(C)c32)c1 [Trametinib] (partner 0.02 µM)
How it was run: as §1

Bexarotene + Decitabine = compound: C=C(c1ccc(C(=O)O)cc1)c1cc2c(cc1C)C(C)(C)CCC2(C)C [Bexarotene] + Nc1ncn([C@H]2C[C@H](O)[C@@H](CO)O2)c(=O)n1 [Decitabine] (partner 2 µM)
How it was run: as §1

Bexarotene = compound: C=C(c1ccc(C(=O)O)cc1)c1cc2c(cc1C)C(C)(C)CCC2(C)C [Bexarotene]
How it was run: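 Five library-drug doses spaced by √10 were pinned onto vehicle-anchored 1536-well plates of lung cancer cell lines that had been kept overnight at 37 °C. Cells went 5 days without medium change, then were fixed, permeabilised and Hoechst-stained together, imaged at 4× and counted by MetaXpress. Viability is the ratio of treated-well to vehicle-well nuclei, taken as a median over plates. Plates required control CV below 25% and at least one doubling.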

Bexarotene + Foretinib = compound: C=C(c1ccc(C(=O)O)cc1)c1cc2c(cc1C)C(C)(C)CCC2(C)C [Bexarotene] + COc1cc2c(Oc3ccc(NC(=O)C4(C(=O)Nc5ccc(F)cc5)CC4)cc3F)ccnc2cc1OCCCN1CCOCC1 [Foretinib] (partner 0.25 µM)
How it was run: as §1

In the case of NCI-H522, the relative viability (Bexarotene + Phenformin; first compound 0.08 µM) is reported as 0.612, the relative viability (Bexarotene + Phenformin; first compound 0.253 µM) is reported as 0.521 and the relative viability (Bexarotene + Phenformin; first compound 0.8 µM) is reported as 0.591. For the same cell line, the relative viability (Bexarotene + Phenformin; first compound 2.53 µM) was 0.518, the relative viability (Bexarotene + Phenformin; first compound 8 µM) was 0.626 and the relative viability (Bexarotene + Pemetrexed; first compound 0.08 µM) was 1.01. The relative viability (Bexarotene + Pemetrexed; first compound 0.253 µM) was 1.18, the relative viability (Bexarotene + Pemetrexed; first compound 0.8 µM) was 1.11 and the relative viability (Bexarotene + Pemetrexed; first compound 2.53 µM) was 0.855. For the same cell line, the relative viability (Bexarotene + Pemetrexed; first compound 8 µM) was 0.862, the relative viability (Bexarotene + Dasatinib; first compound 0.08 µM) was 0.939 and the relative viability (Bexarotene + Dasatinib; first compound 0.253 µM) was 0.874. The relative viability (Bexarotene + Dasatinib; first compound 0.8 µM) was 0.957, the relative viability (Bexarotene + Dasatinib; first compound 2.53 µM) was 0.842 and the relative viability (Bexarotene + Dasatinib; first compound 8 µM) was 0.93. For the same cell line, the relative viability (Bexarotene + Tozasertib; first compound 0.08 µM) was 0.551, the relative viability (Bexarotene + Tozasertib; first compound 0.253 µM) was 0.523 and the relative viability (Bexarotene + Tozasertib; first compound 0.8 µM) was 0.562. The relative viability (Bexarotene + Tozasertib; first compound 2.53 µM) was 0.506, the relative viability (Bexarotene + Tozasertib; first compound 8 µM) was 0.634 and the relative viability (Bexarotene + Vorinostat; first compound 0.08 µM) was 0.961. It also gave a relative viability (Bexarotene + Vorinostat; first compound 0.253 µM) of 0.862, a relative viability (Bexarotene + Vorinostat; first compound 0.8 µM) of 0.977 and a relative viability (Bexarotene + Vorinostat; first compound 2.53 µM) of 0.94. The relative viability (Bexarotene + Vorinostat; first compound 8 µM) was 1.01, the relative viability (Bexarotene + Olaparib; first compound 0.08 µM) was 0.666 and the relative viability (Bexarotene + Olaparib; first compound 0.253 µM) was 0.66. The relative viability (Bexarotene + Olaparib; first compound 0.8 µM) was 0.635, the relative viability (Bexarotene + Olaparib; first compound 2.53 µM) was 0.564 and the relative viability (Bexarotene + Olaparib; first compound 8 µM) was 0.675. For the same cell line, the relative viability (Bexarotene + Palbociclib; first compound 0.08 µM) was 1.04, the relative viability (Bexarotene + Palbociclib; first compound 0.253 µM) was 0.887 and the relative viability (Bexarotene + Palbociclib; first compound 0.8 µM) was 1.07. The relative viability (Bexarotene + Palbociclib; first compound 2.53 µM) was 1.14, the relative viability (Bexarotene + Palbociclib; first compound 8 µM) was 1.04 and the relative viability (Bexarotene + OSI-027; first compound 0.08 µM) was 0.722. For the same cell line, the relative viability (Bexarotene + OSI-027; first compound 0.253 µM) was 0.721, the relative viability (Bexarotene + OSI-027; first compound 0.8 µM) was 0.677 and the relative viability (Bexarotene + OSI-027; first compound 2.53 µM) was 0.706. For the same cell line, the relative viability (Bexarotene + OSI-027; first compound 8 µM) was 0.705, the relative viability (Bexarotene + Luminespib; first compound 0.08 µM) was 1.24 and the relative viability (Bexarotene + Luminespib; first compound 0.253 µM) was 1.09. The relative viability (Bexarotene + Luminespib; first compound 0.8 µM) was 1.17, the relative viability (Bexarotene + Luminespib; first compound 2.53 µM) was 1.23 and the relative viability (Bexarotene + Luminespib; first compound 8 µM) was 0.899. For the same cell line, the relative viability (Bexarotene + AZD7762; first compound 0.08 µM) was 0.788, the relative viability (Bexarotene + AZD7762; first compound 0.253 µM) was 0.949 and the relative viability (Bexarotene + AZD7762; first compound 0.8 µM) was 0.734. For the same cell line, the relative viability (Bexarotene + AZD7762; first compound 2.53 µM) was 0.697, the relative viability (Bexarotene + AZD7762; first compound 8 µM) was 0.822 and the relative viability (Bexarotene + Trametinib; first compound 0.08 µM) was 0.736. The relative viability (Bexarotene + Trametinib; first compound 0.253 µM) was 0.805, the relative viability (Bexarotene + Trametinib; first compound 0.8 µM) was 0.74 and the relative viability (Bexarotene + Trametinib; first compound 2.53 µM) was 0.797. For the same cell line, the relative viability (Bexarotene + Trametinib; first compound 8 µM) was 0.736, the relative viability (Bexarotene + Decitabine; first compound 0.08 µM) was 0.642 and the relative viability (Bexarotene + Decitabine; first compound 0.253 µM) was 0.666. It also gave a relative viability (Bexarotene + Decitabine; first compound 0.8 µM) of 0.653, a relative viability (Bexarotene + Decitabine; first compound 2.53 µM) of 0.673 and a relative viability (Bexarotene + Decitabine; first compound 8 µM) of 0.609. It also gave a relative viability (Bexarotene; 0.08 µM) of 1.14, a relative viability (Bexarotene; 0.253 µM) of 0.872 and a relative viability (Bexarotene; 0.8 µM) of 0.957. The relative viability (Bexarotene; 2.53 µM) was 0.816 and the relative viability (Bexarotene; 8 µM) was 1.02.
For NCI-H1623, the relative viability (Bexarotene + Phenformin; first compound 0.08 µM) was 0.661, the relative viability (Bexarotene + Phenformin; first compound 0.253 µM) was 0.598 and the relative viability (Bexarotene + Phenformin; first compound 0.8 µM) was 0.528. It also gave a relative viability (Bexarotene + Phenformin; first compound 2.53 µM) of 0.612, a relative viability (Bexarotene + Phenformin; first compound 8 µM) of 0.504 and a relative viability (Bexarotene + Dasatinib; first compound 0.08 µM) of 0.587. The relative viability (Bexarotene + Dasatinib; first compound 0.253 µM) was 0.501, the relative viability (Bexarotene + Dasatinib; first compound 0.8 µM) was 0.568 and the relative viability (Bexarotene + Dasatinib; first compound 2.53 µM) was 0.579. For the same cell line, the relative viability (Bexarotene + Dasatinib; first compound 8 µM) was 0.531, the relative viability (Bexarotene + Tozasertib; first compound 0.08 µM) was 0.452 and the relative viability (Bexarotene + Tozasertib; first compound 0.253 µM) was 0.431. For the same cell line, the relative viability (Bexarotene + Tozasertib; first compound 0.8 µM) was 0.333, the relative viability (Bexarotene + Tozasertib; first compound 2.53 µM) was 0.424 and the relative viability (Bexarotene + Tozasertib; first compound 8 µM) was 0.416. The relative viability (Bexarotene + Foretinib; first compound 0.08 µM) was 0.836, the relative viability (Bexarotene + Foretinib; first compound 0.253 µM) was 0.813 and the relative viability (Bexarotene + Foretinib; first compound 0.8 µM) was 0.805. It also gave a relative viability (Bexarotene + Foretinib; first compound 2.53 µM) of 0.848, a relative viability (Bexarotene + Foretinib; first compound 8 µM) of 0.773 and a relative viability (Bexarotene + OSI-027; first compound 0.08 µM) of 0.439. It also gave a relative viability (Bexarotene + OSI-027; first compound 0.253 µM) of 0.441, a relative viability (Bexarotene + OSI-027; first compound 0.8 µM) of 0.363 and a relative viability (Bexarotene + OSI-027; first compound 2.53 µM) of 0.407. The relative viability (Bexarotene + OSI-027; first compound 8 µM) was 0.334, the relative viability (Bexarotene + Luminespib; first compound 0.08 µM) was 0.459 and the relative viability (Bexarotene + Luminespib; first compound 0.253 µM) was 0.476. The relative viability (Bexarotene + Luminespib; first compound 0.8 µM) was 0.481, the relative viability (Bexarotene + Luminespib; first compound 2.53 µM) was 0.441 and the relative viability (Bexarotene + Luminespib; first compound 8 µM) was 0.543. It also gave a relative viability (Bexarotene; 0.08 µM) of 0.751, a relative viability (Bexarotene; 0.253 µM) of 0.849 and a relative viability (Bexarotene; 0.8 µM) of 0.815. For the same cell line, the relative viability (Bexarotene; 2.53 µM) was 0.854 and the relative viability (Bexarotene; 8 µM) was 0.806.
